Source: patent publication US11136329B2, “JAK inhibitors” (Vimalan Biosciences, Inc., priority 2019, dated 2021)

Key:
Assay type in all cases: biochemical
[1] = molecular target: JAK1 (Homo sapiens (Human), UniProt P23458); assay: JAK/TYK2 assay (Kinase Glo luminescence), JAK1; details: 7.5 nM enzyme, 2 uM ATP, 30 uM IRS-1, 1 hr
Method in brief: (§1)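 Kinase activity read as Kinase Glo luminescence (inversely related to activity) after enzyme and substrate reacted with compound at 25° C. for 1-2 hours in 20 mM HEPES, 10 mM MgCl2, 0.01% Tween, 1 mM DTT, pH 7.5. Test compound final concentrations spanned 10000 to 0.51 nM in 3-fold steps.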

[2] = molecular target: TYK2 (Homo sapiens (Human), UniProt P29597); assay: JAK/TYK2 assay (Kinase Glo luminescence), TYK2; details: 9 nM enzyme, 2 uM ATP, 30 uM IRS-1, 1 hr
Chain of TYK2 (P29597 whole entry, species assumed): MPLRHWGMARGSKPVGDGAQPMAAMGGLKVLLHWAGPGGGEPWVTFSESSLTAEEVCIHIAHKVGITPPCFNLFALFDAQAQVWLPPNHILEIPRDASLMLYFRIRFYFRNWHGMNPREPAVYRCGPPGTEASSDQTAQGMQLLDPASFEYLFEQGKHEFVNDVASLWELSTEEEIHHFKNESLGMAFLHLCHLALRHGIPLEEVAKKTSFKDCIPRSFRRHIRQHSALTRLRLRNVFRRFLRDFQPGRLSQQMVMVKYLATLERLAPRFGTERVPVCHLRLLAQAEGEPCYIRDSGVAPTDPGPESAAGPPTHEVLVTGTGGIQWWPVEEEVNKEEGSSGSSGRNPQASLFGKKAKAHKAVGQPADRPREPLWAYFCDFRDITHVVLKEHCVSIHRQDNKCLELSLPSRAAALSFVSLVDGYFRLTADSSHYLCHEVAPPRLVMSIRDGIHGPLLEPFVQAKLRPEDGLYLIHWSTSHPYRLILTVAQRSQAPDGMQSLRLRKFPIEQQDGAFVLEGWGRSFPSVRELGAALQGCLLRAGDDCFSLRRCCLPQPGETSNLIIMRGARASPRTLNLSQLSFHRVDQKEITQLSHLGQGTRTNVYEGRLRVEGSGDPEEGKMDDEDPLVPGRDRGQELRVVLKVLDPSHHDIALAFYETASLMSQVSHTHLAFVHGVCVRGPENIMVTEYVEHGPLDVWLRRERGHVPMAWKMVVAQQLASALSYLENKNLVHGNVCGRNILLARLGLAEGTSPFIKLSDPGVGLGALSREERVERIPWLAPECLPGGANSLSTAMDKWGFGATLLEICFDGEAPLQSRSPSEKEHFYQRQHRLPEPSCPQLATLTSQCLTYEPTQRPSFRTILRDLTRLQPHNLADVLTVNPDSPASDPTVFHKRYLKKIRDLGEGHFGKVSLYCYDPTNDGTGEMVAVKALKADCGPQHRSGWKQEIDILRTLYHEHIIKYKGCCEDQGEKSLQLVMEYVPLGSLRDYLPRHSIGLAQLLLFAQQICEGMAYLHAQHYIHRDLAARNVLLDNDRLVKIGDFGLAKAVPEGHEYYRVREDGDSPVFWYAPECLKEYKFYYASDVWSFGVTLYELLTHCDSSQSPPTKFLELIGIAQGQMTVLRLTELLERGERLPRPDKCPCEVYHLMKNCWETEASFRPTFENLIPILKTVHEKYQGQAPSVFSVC
Method in brief: as §1

[3] = molecular target: JAK2 (Homo sapiens (Human), UniProt O60674); assay: JAK/TYK2 assay (Kinase Glo luminescence), JAK2; details: 0.8 nM enzyme, 2 uM ATP, 4 uM pEY, 1 hr
Chain of JAK2 (O60674 whole entry, species assumed): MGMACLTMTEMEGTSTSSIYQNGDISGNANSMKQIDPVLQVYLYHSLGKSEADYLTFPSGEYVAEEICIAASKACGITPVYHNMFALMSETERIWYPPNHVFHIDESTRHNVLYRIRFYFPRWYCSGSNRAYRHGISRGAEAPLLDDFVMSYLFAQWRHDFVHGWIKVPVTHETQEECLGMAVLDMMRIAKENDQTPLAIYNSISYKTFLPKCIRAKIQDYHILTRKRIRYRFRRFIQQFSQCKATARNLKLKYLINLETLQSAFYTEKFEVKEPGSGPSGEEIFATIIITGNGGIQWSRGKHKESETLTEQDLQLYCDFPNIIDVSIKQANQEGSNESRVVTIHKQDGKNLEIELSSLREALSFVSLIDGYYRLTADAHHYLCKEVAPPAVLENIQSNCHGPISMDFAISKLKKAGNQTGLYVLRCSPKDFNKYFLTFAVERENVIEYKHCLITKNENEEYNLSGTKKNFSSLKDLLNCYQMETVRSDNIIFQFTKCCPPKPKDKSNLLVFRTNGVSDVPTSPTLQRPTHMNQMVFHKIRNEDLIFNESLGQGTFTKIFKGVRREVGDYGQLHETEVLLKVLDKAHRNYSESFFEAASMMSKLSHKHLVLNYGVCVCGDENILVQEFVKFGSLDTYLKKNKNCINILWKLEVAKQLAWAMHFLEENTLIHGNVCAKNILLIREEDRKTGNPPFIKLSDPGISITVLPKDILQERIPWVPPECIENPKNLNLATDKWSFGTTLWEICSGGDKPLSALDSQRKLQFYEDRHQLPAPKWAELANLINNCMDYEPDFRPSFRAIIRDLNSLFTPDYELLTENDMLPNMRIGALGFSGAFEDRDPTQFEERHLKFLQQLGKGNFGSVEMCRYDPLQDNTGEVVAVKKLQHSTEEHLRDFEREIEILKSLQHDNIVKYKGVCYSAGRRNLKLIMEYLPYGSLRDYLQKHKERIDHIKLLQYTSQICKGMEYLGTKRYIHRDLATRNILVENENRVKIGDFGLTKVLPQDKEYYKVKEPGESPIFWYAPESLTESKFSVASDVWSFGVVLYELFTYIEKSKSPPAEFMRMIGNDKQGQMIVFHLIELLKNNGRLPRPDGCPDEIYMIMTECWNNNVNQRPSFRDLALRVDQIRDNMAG
Method in brief: as §1

[4] = molecular target: JAK3 (Homo sapiens (Human), UniProt P52333); assay: JAK/TYK2 assay (Kinase Glo luminescence), JAK3; details: 1.5 nM enzyme, 2 uM ATP, 4 uM pEY, 1 hr
Chain of JAK3 (P52333 whole entry, species assumed): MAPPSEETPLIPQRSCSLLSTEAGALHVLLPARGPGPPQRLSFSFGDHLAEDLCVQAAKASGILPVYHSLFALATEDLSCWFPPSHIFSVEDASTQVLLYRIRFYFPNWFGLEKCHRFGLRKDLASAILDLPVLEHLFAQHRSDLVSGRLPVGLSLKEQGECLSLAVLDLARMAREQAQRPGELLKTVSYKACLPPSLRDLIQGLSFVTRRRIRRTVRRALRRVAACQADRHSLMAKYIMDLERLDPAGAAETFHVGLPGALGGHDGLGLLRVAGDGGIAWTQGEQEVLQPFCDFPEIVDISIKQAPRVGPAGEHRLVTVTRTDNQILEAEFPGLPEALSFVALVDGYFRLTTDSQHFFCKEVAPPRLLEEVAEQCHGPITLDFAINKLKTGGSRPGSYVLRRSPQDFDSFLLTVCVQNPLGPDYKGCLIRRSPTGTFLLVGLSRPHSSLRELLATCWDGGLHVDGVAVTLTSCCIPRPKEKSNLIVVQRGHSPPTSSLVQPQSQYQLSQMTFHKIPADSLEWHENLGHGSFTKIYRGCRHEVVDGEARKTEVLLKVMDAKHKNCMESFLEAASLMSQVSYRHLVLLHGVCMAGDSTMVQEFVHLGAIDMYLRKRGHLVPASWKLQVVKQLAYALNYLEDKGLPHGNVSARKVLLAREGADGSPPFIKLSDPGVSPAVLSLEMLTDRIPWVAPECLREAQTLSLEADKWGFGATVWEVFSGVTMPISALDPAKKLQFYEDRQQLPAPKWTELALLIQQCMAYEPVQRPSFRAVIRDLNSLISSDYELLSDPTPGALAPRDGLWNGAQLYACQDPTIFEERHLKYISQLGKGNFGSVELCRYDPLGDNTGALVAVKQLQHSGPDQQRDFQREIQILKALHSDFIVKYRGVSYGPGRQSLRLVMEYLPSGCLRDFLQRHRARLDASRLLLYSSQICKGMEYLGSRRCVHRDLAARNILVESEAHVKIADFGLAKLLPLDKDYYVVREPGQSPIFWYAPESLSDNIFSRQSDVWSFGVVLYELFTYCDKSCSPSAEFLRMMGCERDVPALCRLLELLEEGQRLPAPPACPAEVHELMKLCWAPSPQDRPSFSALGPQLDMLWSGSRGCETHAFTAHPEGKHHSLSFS
Method in brief: as §1

Chain of JAK1 (P23458 whole entry, species assumed): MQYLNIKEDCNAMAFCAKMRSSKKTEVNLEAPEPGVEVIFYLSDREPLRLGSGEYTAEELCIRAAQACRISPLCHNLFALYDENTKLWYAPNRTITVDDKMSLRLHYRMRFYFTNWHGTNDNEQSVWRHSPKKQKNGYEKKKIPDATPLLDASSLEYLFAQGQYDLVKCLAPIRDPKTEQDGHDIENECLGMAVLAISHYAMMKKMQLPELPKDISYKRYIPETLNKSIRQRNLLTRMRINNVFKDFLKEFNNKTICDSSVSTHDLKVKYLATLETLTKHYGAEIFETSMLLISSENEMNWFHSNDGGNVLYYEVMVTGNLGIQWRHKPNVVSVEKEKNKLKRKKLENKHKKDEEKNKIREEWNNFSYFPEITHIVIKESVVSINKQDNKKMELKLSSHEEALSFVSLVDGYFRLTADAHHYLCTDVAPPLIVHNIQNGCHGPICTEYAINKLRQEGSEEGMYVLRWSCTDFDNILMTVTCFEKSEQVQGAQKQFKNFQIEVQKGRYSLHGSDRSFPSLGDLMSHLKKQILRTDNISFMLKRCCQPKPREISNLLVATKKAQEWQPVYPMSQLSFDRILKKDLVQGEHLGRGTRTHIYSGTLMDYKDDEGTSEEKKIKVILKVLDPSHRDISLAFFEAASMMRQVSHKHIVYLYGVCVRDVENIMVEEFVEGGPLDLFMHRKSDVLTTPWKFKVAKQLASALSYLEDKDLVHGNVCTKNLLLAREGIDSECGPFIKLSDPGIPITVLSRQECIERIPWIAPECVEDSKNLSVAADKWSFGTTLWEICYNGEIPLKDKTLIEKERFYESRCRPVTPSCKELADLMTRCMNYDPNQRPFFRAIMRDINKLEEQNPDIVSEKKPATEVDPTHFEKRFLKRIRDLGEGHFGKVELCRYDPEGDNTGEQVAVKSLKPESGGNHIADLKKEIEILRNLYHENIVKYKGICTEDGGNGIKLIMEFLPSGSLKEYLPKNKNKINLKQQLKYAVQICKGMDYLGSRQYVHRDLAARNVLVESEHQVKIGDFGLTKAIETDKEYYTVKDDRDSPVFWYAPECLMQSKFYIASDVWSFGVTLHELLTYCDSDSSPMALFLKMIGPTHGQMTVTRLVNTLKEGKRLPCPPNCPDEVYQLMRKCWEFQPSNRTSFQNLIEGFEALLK

IC50 [1] [nM]	IC50 [2] [nM]	IC50 [3] [nM]	IC50 [4] [nM]	Compound
< 100	< 100	< 100	< 100	CCC(CC)Cn1ccc2cnc(Nc3cnn(CC(=O)OC4CC(C#N)C4)c3)nc21 (stereo not drawn) [Compound 91, 3-cyanocyclobutyl 2-(4-((7-(2-ethylbutyl)-7H-pyrrolo[2,3-d]pyrimidin-2-yl)amino)-1H-pyrazol-1-yl)acetate]
< 100	< 100	< 100	< 100	CCC(CC)Cn1ccc2cnc(Nc3cnn(CC(=O)OCCO)c3)nc21 [Compound 90, 2-hydroxyethyl 2-(4-((7-(2-ethylbutyl)-7H-pyrrolo[2,3-d]pyrimidin-2-yl)amino)-1H-pyrazol-1-yl)acetate]
< 100	< 100	< 100	< 100	CC(C)OC(=O)Cn1cc(Nc2ncc3ccn(C[C@@H](CCO)C(C)C)c3n2)cn1 [Compound 97, isopropyl (S)-2-(4-((7-(4-hydroxy-2-isopropylbutyl)-7H-pyrrolo[2,3-d]pyrimidin-2-yl)amino)-1H-pyrazol-1-yl)acetate]
< 100	< 100	< 100	< 100	CCOC(=O)Cn1cc(Nc2ncc3ccn(CC(C(C)C)C(C)C)c3n2)cn1 [Compound 50, ethyl 2-(4-((7-(2-isopropyl-3-methylbutyl)-7H-pyrrolo[2,3-d]pyrimidin-2-yl)amino)-1H-pyrazol-1-yl)acetate]
< 100	< 100	< 100	< 100	CC[C@@H](Cn1ccc2cnc(Nc3cnn(C(C)C(=O)O)c3)nc21)C(C)C (stereo partly drawn) [Compound 114, 2-(4-((7-((R)-2-ethyl-3-methylbutyl)-7H-pyrrolo[2,3-d]pyrimidin-2-yl)amino)-1H-pyrazol-1-yl)propanoic acid]
< 100	< 100	< 100	< 100	CCC(Cn1ccc2cnc(Nc3cnn(CC(=O)OCCO)c3)nc21)C(C)C (stereo not drawn) [Compound 85, 2-hydroxyethyl 2-(4-((7-(2-ethyl-3-methylbutyl)-7H-pyrrolo[2,3-d]pyrimidin-2-yl)amino)-1H-pyrazol-1-yl)acetate]
< 100	< 100	< 100	< 100	CC[C@H](Cn1ccc2cnc(Nc3cnn([C@@H]4CCOC4=O)c3)nc21)C(C)C [Compound 82A, (R)-3-(4-((7-((S)-2-ethyl-3-methylbutyl)-7H-pyrrolo[2,3-d]pyrimidin-2-yl)amino)-1H-pyrazol-1-yl)dihydrofuran-2(3H)-one]
< 100	< 100	< 100	< 100	CCOC(=O)Cn1cc(Nc2ncc3ccn(C[C@H](CC)C(C)C)c3n2)cn1 [Compound 133, ethyl (R)-2-(4-((7-(2-ethyl-3-methylbutyl)-7H-pyrrolo[2,3-d]pyrimidin-2-yl)amino)-1H-pyrazol-1-yl)acetate]
< 100	< 100	< 100	< 100	CC(C)C(Cn1ccc2cnc(Nc3cnn(CC(=O)OCCO)c3)nc21)C(C)C [Compound 88, 2-hydroxyethyl 2-(4-((7-(2-isopropyl-3-methylbutyl)-7H-pyrrolo[2,3-d]pyrimidin-2-yl)amino)-1H-pyrazol-1-yl)acetate]
< 100	< 100	< 100	< 100	CC(C)OC(=O)Cn1cc(Nc2ncc3ccn(CC(C(C)C)C(C)C)c3n2)cn1 [Compound 94, isopropyl 2-(4-((7-(2-isopropyl-3-methylbutyl)-7H-pyrrolo[2,3-d]pyrimidin-2-yl)amino)-1H-pyrazol-1-yl)acetate]
< 100	< 100	< 100	< 100	CCC(Cn1ccc2cnc(Nc3cnn(CC(=O)OCCC#N)c3)nc21)C(C)C (stereo not drawn) [Compound 92, 2-cyanoethyl 2-(4-((7-(2-ethyl-3-methylbutyl)-7H-pyrrolo[2,3-d]pyrimidin-2-yl)amino)-1H-pyrazol-1-yl)acetate]
100 to 1000	100 to 1000	100 to 1000	100 to 1000	CC(C)OC(=O)Cn1cc(Nc2ncc3ccn(C[C@@H](CCN(C)C)C(C)C)c3n2)cn1 [Compound 96, isopropyl (S)-2-(4-((7-(4-(dimethylamino)-2-isopropylbutyl)-7H-pyrrolo[2,3-d]pyrimidin-2-yl)amino)-1H-pyrazol-1-yl)acetate]
< 100	< 100	< 100	< 100	CCOC(=O)C(C)n1cc(Nc2ncc3ccn(C[C@@H](CC)C(C)C)c3n2)cn1 (stereo partly drawn) [Compound 118, ethyl 2-(4-((7-((S)-2-ethyl-3-methylbutyl)-7H-pyrrolo[2,3-d]pyrimidin-2-yl)amino)-1H-pyrazol-1-yl)propanoate]
< 100	< 100	< 100	< 100	CC(C)OC(=O)Cn1cc(Nc2ncc3ccn(C[C@@H](CCCl)C(C)C)c3n2)cn1 [Compound 98, isopropyl (S)-2-(4-((7-(4-chloro-2-isopropylbutyl)-7H-pyrrolo[2,3-d]pyrimidin-2-yl)amino)-1H-pyrazol-1-yl)acetate]
< 100	< 100	< 100	< 100	CCC(Cn1ccc2cnc(Nc3cnn(C(=O)OC(C)(C)C)c3)nc21)C(C)C (stereo not drawn) [Compound 137, tert-butyl 4-((7-(2-ethyl-3-methylbutyl)-7H-pyrrolo[2,3-d]pyrimidin-2-yl)amino)-1H-pyrazole-1-carboxylate]
< 100	< 100	< 100	< 100	CCC(CC)Cn1ccc2cnc(Nc3cnn(CC(=O)OC(C)C(C)O)c3)nc21 (stereo not drawn) [Compound 113, 3-hydroxybutan-2-yl 2-(4-((7-(2-ethylbutyl)-7H-pyrrolo[2,3-d]pyrimidin-2-yl)amino)-1H-pyrazol-1-yl)acetate]

More lines, now with the values behind:

Compound	IC50 [1] [nM]	IC50 [2] [nM]	IC50 [3] [nM]	IC50 [4] [nM]
CCOC(=O)Cn1cc(Nc2ncc3ccn(CC4CC5CCC4C5)c3n2)cn1 (stereo not drawn) [Compound 40, ethyl 2-(4-((7-(bicyclo[2.2.1]heptan-2-ylmethyl)-7H-pyrrolo[2,3-d]pyrimidin-2-yl)amino)-1H-pyrazol-1-yl)acetate]	< 100	< 100	< 100	< 100
O=C(O)Cn1cc(Nc2ncc3ccn(CC4CCCCC4(F)F)c3n2)cn1 (stereo not drawn) [Compound 37, 2-(4-((7-((2,2-difluorocyclohexyl)methyl)-7H-pyrrolo[2,3-d]pyrimidin-2-yl)amino)-1H-pyrazol-1-yl)acetic acid]	< 100	< 100	< 100	< 100
CCOC(=O)c1ccc(Nc2ncc3ccn(CC(CC)CC)c3n2)cc1 [Compound 26, ethyl 4-((7-(2-ethylbutyl)-7H-pyrrolo[2,3-d]pyrimidin-2-yl)amino)benzoate]	100 to 1000	100 to 1000	100 to 1000	100 to 1000
O=C(O)Cn1cc(Nc2ncc3ccn(CC4CCCCC4)c3n2)cn1 [Compound 15, 2-(4-((7-(cyclohexylmethyl)-7H-pyrrolo[2,3-d]pyrimidin-2-yl)amino)-1H-pyrazol-1-yl)acetic acid]	< 100	< 100	< 100	< 100
CCOC(=O)Cn1cc(Nc2ncc3ccn(CC(CC)C(C)C)c3n2)cn1 (stereo not drawn) [Compound 49, ethyl 2-(4-((7-(2-ethyl-3-methylbutyl)-7H-pyrrolo[2,3-d]pyrimidin-2-yl)amino)-1H-pyrazol-1-yl)acetate]	< 100	< 100	< 100	< 100
CCOC(=O)Cn1cc(Nc2ncc3ccn(CC4CCCCC4C)c3n2)cn1 (stereo not drawn) [Compound 42, ethyl 2-(4-((7-((2-methylcyclohexyl)methyl)-7H-pyrrolo[2,3-d]pyrimidin-2-yl)amino)-1H-pyrazol-1-yl)acetate]	< 100	< 100	< 100	< 100
CCC(CC)Cn1ccc2cnc(Nc3cnn(CC(=O)O)c3)nc21 [Compound 9, 2-(4-((7-(2-ethylbutyl)-7H-pyrrolo[2,3-d]pyrimidin-2-yl)amino)-1H-pyrazol-1-yl)acetic acid]	< 100	< 100	< 100	< 100
CCOC(=O)Cn1cc(Nc2ncc3ccn(CC4(C)CCCC4)c3n2)cn1 [Compound 41, ethyl 2-(4-((7-((1-methylcyclopentyl)methyl)-7H-pyrrolo[2,3-d]pyrimidin-2-yl)amino)-1H-pyrazol-1-yl)acetate]	< 100	< 100	< 100	< 100
O=C(O)Cn1cc(Nc2ncc3ccn(CC4CCCC(F)(F)C4)c3n2)cn1 (stereo not drawn) [Compound 38, 2-(4-((7-((3,3-difluorocyclohexyl)methyl)-7H-pyrrolo[2,3-d]pyrimidin-2-yl)amino)-1H-pyrazol-1-yl)acetic acid]	< 100	< 100	< 100	< 100
CCOC(=O)CCn1cc(Nc2ncc3ccn(CC(CC)C(C)C)c3n2)cn1 (stereo not drawn) [Compound 30, ethyl 3-(4-((7-(2-ethyl-3-methylbutyl)-7H-pyrrolo[2,3-d]pyrimidin-2-yl)amino)-1H-pyrazol-1-yl)propanoate]	< 100	< 100	< 100	< 100
CC#CCn1ccc2cnc(Nc3cnn(CC(=O)OCC)c3)nc21 [Compound 23, ethyl 2-(4-((7-(but-2-yn-1-yl)-7H-pyrrolo[2,3-d]pyrimidin-2-yl)amino)-1H-pyrazol-1-yl)acetate]	100 to 1000	100 to 1000	100 to 1000	< 100
